Source: patent US20250257099A1 (priority 2022, published 2025)

Key:
SARS-CoV-2 S protein = SARS-CoV-2 S protein (Severe acute respiratory syndrome coronavirus 2, UniProt P0DTC2); assay: cell-based; details: HEK-293T, read-out: IC90, inhibition of S-mediated fusion
SARS-CoV-2 = details: 72 h

## CC[C@H](C)[C@H](NC(=O)[C@H](C)NC(=O)[C@H](CCC(=O)O)NC(=O)[C@H](CCC(=O)O)NC(=O)[C@H](CC(C)C)NC(=O)[C@H](CCCCN)NC(=O)[C@H](CCCCN)NC(=O)[C@H](CCSC)NC(=O)[C@H](CCC(=O)O)NC(=O)[C@H](Cc1ccc(O)cc1)NC(=O)[C@H](CCC(=O)O)NC(=O)[C@H](CC(C)C)NC(=O)[C@H](CC(=O)O)NC(=O)[C@H](CC(C)C)NC(=O)[C@H](Cc1ccccc1)NC(=O)[C@@H](NC(=O)[C@@H](NC(=O)[C@H](CC(N)=O)NC(=O)[C@@H](NC(=O)[C@H](CCC(N)=O)NC(=O)[C@H](CC(=O)O)NC(=O)[C@H](CC(C)C)NC(=O)[C@H](CO)NC(C)=O)[C@@H](C)CC)C(C)C)[C@@H](C)O)C(=O)N[C@@H](CCCCN)C(=O)N[C@@H](CCCCN)C(=O)N[C@@H](CC(C)C)C(=O)N[C@@H](CCC(=O)O)C(=O)N[C@@H](CCC(=O)O)C(=O)N[C@@H](CO)C(=O)N[C@@H](Cc1ccc(O)cc1)C(=O)N[C@H](C(=O)N[C@@H](CC(=O)O)C(=O)N[C@@H](CC(C)C)C(=O)N[C@@H](CCCCN)C(=O)N[C@@H](CCC(=O)O)C(=O)N[C@@H](CC(C)C)C(=O)NCC(=O)N[C@@H](CO)C(=O)NCC(=O)N[C@@H](CO)C(=O)NCC(=O)N[C@@H](CSCC(=O)NCCOCCOCCOCCOCCC(=O)O[C@H]1CC[C@@]2(C)C(=CC[C@H]3[C@@H]4CC[C@H]([C@H](C)CCCC(C)C)[C@@]4(C)CC[C@@H]32)C1)C(N)=O)[C@@H](C)CC [EK1 lipopeptide]
SARS-CoV-2 S protein
  IC90: > 900 nM
SARS-CoV-2
  IC50: ~80 nM
Vero E6 cells
  toxicity (MTT assay): < 20%
